Results as given in the supplement of paper PMC10307832.

Key:
Assay in all cases: relative viability (nuclei count vs DMSO), 5 days (fraction); higher = more cells survive
[1] = compound: CN1C=C(C2=CC=CC=C21)/C=C\3/C4=C(C=CC=N4)NC3=O + CS(=O)(=O)CCNCc1ccc(-c2ccc3ncnc(Nc4ccc(OCc5cccc(F)c5)c(Cl)c4)c3c2)o1 [Lapatinib] (partner 2 µM)
How it was run: (§1)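 Nuclei were stained with Hoechst during a one-step fixation (final 0.05% Triton X-100, 1% formaldehyde, 1 ug/ml Hoechst) carried out 5 days after dosing, then counted on 4× images. The cells, lung cancer lines in 1536-well plates, had been dosed by pin tool the day after seeding with one drug alone or a fixed anchor-drug dose plus five library-drug doses (not always all listed) in √10 steps. Relative viability is the nuclei count in treated wells divided by that in vehicle wells, and each value is the median of duplicate plates.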

[2] = compound: CN1C=C(C2=CC=CC=C21)/C=C\3/C4=C(C=CC=N4)NC3=O + COc1cccc2cc(-c3nc([C@H]4CC[C@H](C(=O)O)CC4)n4ncnc(N)c34)[nH]c12 [OSI-027] (partner 0.5 µM)
How it was run: as §1

[3] = compound: CN1C=C(C2=CC=CC=C21)/C=C\3/C4=C(C=CC=N4)NC3=O + N=C(N)NC(=N)NCCc1ccccc1 [Phenformin] (partner 250 µM)
How it was run: as §1

[4] = compound: CN1C=C(C2=CC=CC=C21)/C=C\3/C4=C(C=CC=N4)NC3=O + CS(=O)(=O)N1CCN(Cc2cc3nc(-c4cccc5[nH]ncc45)nc(N4CCOCC4)c3s2)CC1 [Pictilisib] (partner 1 µM)
How it was run: as §1

UMC-11
relative viability ([1]; first compound 0.02 µM): 0.854 | relative viability ([1]; first compound 0.06325 µM): 0.901 | relative viability ([1]; first compound 0.2 µM): 0.632 | relative viability ([1]; first compound 0.6325 µM): 0.897 | relative viability ([1]; first compound 2 µM): 1.33 | relative viability ([2]; first compound 0.02 µM): 0.513 | relative viability ([2]; first compound 0.06325 µM): 0.49 | relative viability ([2]; first compound 0.2 µM): 0.461 | relative viability ([2]; first compound 0.6325 µM): 0.536 | relative viability ([2]; first compound 2 µM): 0.494 | relative viability ([3]; first compound 0.02 µM): 0.299 | relative viability ([3]; first compound 0.06325 µM): 0.306 | relative viability ([3]; first compound 0.2 µM): 0.265 | relative viability ([3]; first compound 0.6325 µM): 0.369 | relative viability ([3]; first compound 2 µM): 0.34 | relative viability ([4]; first compound 0.02 µM): 0.742 | relative viability ([4]; first compound 0.06325 µM): 0.553 | relative viability ([4]; first compound 0.2 µM): 0.549 | relative viability ([4]; first compound 0.6325 µM): 0.763 | relative viability ([4]; first compound 2 µM): 0.875
